Series [1] has as its target T1, Solute carrier organic anion transporter family member 1B1 (Homo sapiens, UniProt Q9Y6L6).
T1 sequence (Q9Y6L6 whole entry): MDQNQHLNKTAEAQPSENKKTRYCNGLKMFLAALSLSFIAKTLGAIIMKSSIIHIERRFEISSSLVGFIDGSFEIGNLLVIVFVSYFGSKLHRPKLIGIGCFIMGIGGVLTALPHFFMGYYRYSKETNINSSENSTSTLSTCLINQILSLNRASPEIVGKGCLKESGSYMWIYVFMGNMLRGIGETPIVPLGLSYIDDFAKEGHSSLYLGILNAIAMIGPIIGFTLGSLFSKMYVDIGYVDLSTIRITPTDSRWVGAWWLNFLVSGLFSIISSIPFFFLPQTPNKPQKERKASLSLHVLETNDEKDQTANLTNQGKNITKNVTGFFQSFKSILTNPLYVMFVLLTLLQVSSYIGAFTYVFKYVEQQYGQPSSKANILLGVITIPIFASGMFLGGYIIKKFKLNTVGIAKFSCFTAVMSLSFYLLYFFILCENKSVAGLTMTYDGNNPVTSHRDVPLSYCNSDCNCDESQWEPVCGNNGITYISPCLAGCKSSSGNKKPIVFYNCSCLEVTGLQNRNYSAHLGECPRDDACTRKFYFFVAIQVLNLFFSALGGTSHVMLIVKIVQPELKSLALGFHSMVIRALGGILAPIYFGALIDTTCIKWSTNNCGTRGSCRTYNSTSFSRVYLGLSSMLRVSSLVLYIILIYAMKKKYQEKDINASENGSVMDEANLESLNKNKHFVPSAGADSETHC
The note with it: chinese hamster, cho, 10 µM.

In series [2] the target is T2, Solute carrier organic anion transporter family member 1B3 (Homo sapiens, UniProt Q9NPD5).
T2 sequence (Q9NPD5 whole entry): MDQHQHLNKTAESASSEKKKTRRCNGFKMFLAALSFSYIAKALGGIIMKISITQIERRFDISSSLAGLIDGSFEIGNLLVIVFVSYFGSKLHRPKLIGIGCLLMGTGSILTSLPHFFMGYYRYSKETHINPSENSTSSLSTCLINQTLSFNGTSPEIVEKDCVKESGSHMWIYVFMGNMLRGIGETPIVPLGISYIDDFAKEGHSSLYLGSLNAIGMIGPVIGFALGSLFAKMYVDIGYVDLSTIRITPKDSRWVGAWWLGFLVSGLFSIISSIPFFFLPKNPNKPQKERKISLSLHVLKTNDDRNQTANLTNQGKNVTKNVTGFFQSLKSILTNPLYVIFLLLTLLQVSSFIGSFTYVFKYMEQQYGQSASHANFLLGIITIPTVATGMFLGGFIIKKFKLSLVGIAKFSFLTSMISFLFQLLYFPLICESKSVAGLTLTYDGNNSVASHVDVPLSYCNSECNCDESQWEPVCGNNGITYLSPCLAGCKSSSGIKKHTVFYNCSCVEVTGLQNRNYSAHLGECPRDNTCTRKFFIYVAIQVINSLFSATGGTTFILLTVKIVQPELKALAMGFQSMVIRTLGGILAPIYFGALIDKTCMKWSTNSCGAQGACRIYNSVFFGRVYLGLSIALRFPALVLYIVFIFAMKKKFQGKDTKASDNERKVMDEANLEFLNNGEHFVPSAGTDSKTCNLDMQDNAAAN
As to conditions: chinese hamster, cho, 10 µM.

Residues, ends and D or L forms follow the SMILES beside them.

As to `CC1=CC2C(CC1=O)C(C)=CCC2C(C)C` (stereo not given) [MUUROLLADIE-3-ONE], the figures for the residual activity in series [1] and in series [2] were 267.7% and 117.6%, respectively.

Take `CCN(CC)C(=O)c1cccc(C)c1` [DIETHYLTOLUAMIDE]: the residual activity amounted to 108.7% in series [1] and 107.2% in series [2].

Consider `NCCCC[C@H](N)C(=O)N[C@@H](Cc1ccccc1)C(=O)N[C@@H](Cc1ccc(O)cc1)C(=O)O` [LYSYLPHENYLALANYLTYROSINE] (H-Lys-Phe-Tyr-OH), for which the residual activity in series [1] was 100.8%; in series [2], 112.2%.

With `CC1(C)[C@H](O)C[C@H](O)[C@@]2(C)[C@H]3CC[C@]4(C)[C@@H](c5ccoc5)OC(=O)[C@H]5O[C@]54[C@]3(C)[C@H](O)C[C@@H]12`, the residual activity in series [1] is 48%; in series [2], 84.19%.

For `CNC(=O)Oc1cccc2c1OC(C)(C)O2` [BENDIOCARB], the residual activity is reported as 88.1% in series [1] and 84.46% in series [2].

For the compound `COc1c2c(cc3occ(-c4ccc5c(c4)OCO5)c(=O)c13)OC(C)(C)C=C2` [METHYL ROBUSTONE], the residual activity in series [1] turned out to be 133%; in series [2], 107.5%.

In the case of `CCC(=O)O[C@H]1CC[C@H]2[C@@H]3CCC4=CC(=O)CC[C@]4(C)[C@H]3CC[C@]12C` [TESTOSTERONE PROPIONATE], the results for the residual activity in series [1] and in series [2] were 121% and 133.5%, respectively.

For `COc1ccc(-c2cc(=O)c3ccc(OC)cc3o2)cc1` [4,7-DIMETHOXYFLAVONE], the residual activity is given as 91.89% in series [1] and 87.07% in series [2].

Turning to `C=C[C@H]1CN2CC[C@H]1C[C@H]2[C@H](O)c1ccnc2ccc(OC)cc12.C=C[C@H]1CN2CC[C@H]1C[C@H]2[C@H](O)c1ccnc2ccc(OC)cc12.O.O.O=S(=O)(O)O` [QUININE SULFATE], the values for the residual activity in series [1] and in series [2] were 92.08% and 99.87%, respectively.

Take `CC(=O)Nc1ccc(OC(=O)c2ccccc2O)cc1` [ACETAMINOSALOL]: the figures for the residual activity in series [1] and in series [2] were 103.1% and 102.7%, respectively.

For the compound `C[C@@H]1C[C@H](O)[C@@]2(O)[C@]13CC(=O)OC[C@]2(C)[C@@](C)(O)C(=O)C3`, the values for the residual activity in series [1] and in series [2] were 95.73% and 109.4%, respectively.

As for `CCC1(c2ccc(N)cc2)CCC(=O)NC1=O` (stereo not given) [AMINOGLUTETHIMIDE], the results for the residual activity in series [1] and in series [2] were 52.33% and 77%, respectively.

For the compound `CC1(C)O[C@@H]2C[C@H]3[C@@H]4CCC5=CC(=O)CC[C@]5(C)[C@@]4(F)[C@@H](O)C[C@]3(C)[C@]2(C(=O)CCl)O1` [HALCINONIDE], the figures for the residual activity in series [1] and in series [2] were 88.26% and 103.5%, respectively.

Take `O=C1CC[C@]23/C=C/C(=O)NCCCCNCCCNC(=O)/C=C\c4ccc(c2c4)O[C@@H]3C1`: the figures for the residual activity in series [1] and in series [2] were 70.42% and 100.4%, respectively.

For the compound `CC1(C)C(=O)C=C[C@]2(C)[C@H]3CC[C@@]4(C)[C@H](c5ccoc5)OC(=O)[C@H]5O[C@]54[C@]3(C)C(=O)C[C@@H]12` [DEACETOXY-7-OXOGEDUNIN], the results for the residual activity in series [1] and in series [2] were 40.28% and 85.14%, respectively.

For the compound `CCNc1nc(Cl)nc(NCC)n1` [SIMAZINE], the residual activity is reported as 89.71% in series [1] and 92.02% in series [2].

On to `CC(=O)N[C@@H](CC(=O)O)C(=O)O`, for which the residual activity in series [1] came to 127.8163%; in series [2] it was 103.6%.

For the compound `CCCCCCCCCCCCCCCCOP(=O)([O-])OCC[N+](C)(C)C` [MILTEFOSINE], the residual activity in series [1] is recorded as 89.28%; in series [2], 93.25%.

Take `Cl.O=C1CC[C@@]2(O)[C@H]3Cc4ccc(O)c5c4[C@@]2(CCN3CC2CC2)[C@H]1O5` [NALTREXONE HYDROCHLORIDE]: the residual activity in series [1] was found to be 71.98%; in series [2], 86.99%.

As for `C=C1CC[C@@H]2[C@](C)(CO)[C@H](O)CC[C@@]2(C)[C@@H]1C/C=C1/C(=O)OC[C@H]1O` [ANDROGRAPHOLIDE], the residual activity in series [1] is reported as 80.16%; in series [2], 84.72%.

As for `O=c1c(O)c(-c2ccc(O)cc2O)oc2cc(O)cc(O)c12` [MORIN], the residual activity in series [1] is given as 24.17%; in series [2], 45.37%.

With `N#Cc1c(Cl)cccc1Cl` [DICHLOBENIL], the residual activity in series [1] was 87.7%; in series [2], 97.91%.

Turning to `COC1(C)CCC2OC2(C)CCC2C1CC2(C)C` (stereo not given) [2-METHOXY-5 (6)EPOXY-TETRAHYDROCARYOPHYLLENE], the residual activity is 92.29% in series [1] and 93.07% in series [2].

In the case of `CC1(C)C(=O)C=C[C@@]2(C)C1=C(O)C(=O)[C@]1(C)[C@@H]2CC[C@@]2(C)[C@H](c3ccoc3)C[C@H]3O[C@]321` [CEDRELONE], the residual activity in series [1] worked out at 44.73%; in series [2] it was 60.66%.

In the case of `CN[C@@H](C)[C@@H](O)c1ccccc1.Cl` [PSEUDOEPHEDRINE HYDROCHLORIDE], the residual activity came out at 86.1% in series [1] and 102.7% in series [2].

Turning to `COc1ccc2c(c1)CC[C@@H]1[C@@H]2CC[C@]2(C)[C@@H](O)CC[C@@H]12` [ESTRADIOL METHYL ETHER], the residual activity in series [1] was found to be 137.4%; in series [2], 110%.

On to `CC1CC[C@]2(OC1)OC1C[C@H]3[C@@H]4CC[C@H]5C[C@@H](O)CC[C@]5(C)C4=CC[C@]3(C)C1[C@@H]2C` (stereo not given in full), for which the residual activity in series [1] is 109.1%; in series [2], 108.3%.

For the compound `C[C@]12CCC(=O)C(O)=C1CC[C@@H]1[C@@H]2CC[C@]2(C)C(=O)CC[C@@H]12` [FORMESTANE], the results for the residual activity in series [1] and in series [2] were 81.74% and 106.1%, respectively.

On to `COc1ccc(-c2cc(=O)c3cc(OC)ccc3o2)cc1` [6,4'-DIMETHOXYFLAVONE], for which the values for the residual activity in series [1] and in series [2] were 34.44% and 110.4%, respectively.

Turning to `CCn1cc(C(=O)O)c(=O)c2cc(F)c(N3CCNCC3)nc21` [ENOXACIN], the residual activity is recorded as 111.1% in series [1] and 89.58% in series [2].

In the case of `COP(=S)(OC)Oc1ccc(Sc2ccc(OP(=S)(OC)OC)cc2)cc1` [TEMEFOS], the residual activity is recorded as 144.3% in series [1] and 89.27% in series [2].

In the case of `CC1CC(OC(=O)C(O)c2ccccc2)CC(C)(C)N1C.Cl` (stereo not given) [EUCATROPINE HYDROCHLORIDE], the residual activity amounted to 84.86% in series [1] and 107.8% in series [2].

For the compound `O=C(OCc1ccccc1)c1ccccc1` [BENZYL BENZOATE], the residual activity in series [1] turned out to be 125.1%; in series [2], 74.09%.

As to `NS(=O)(=O)c1cc(C2(O)NC(=O)c3ccccc32)ccc1Cl` (stereo not given) [CHLORTHALIDONE], the values for the residual activity in series [1] and in series [2] were 62.41% and 67.04%, respectively.

On to `NC(=O)c1ccc([N+](=O)[O-])cc1Cl` [AKLOMIDE], for which the residual activity in series [1] came to 115.5%; in series [2], 100.2%.

`CC(=O)/C=C\[C@@H]1[C@@]2(C)CCCC(C)(C)C2CC[C@@]1(C)O` (stereo not given in full) [8-HYDROXY-15,16-BISNOR-11-LABDEN-13-ONE]: the residual activity is 71.14% in series [1] and 84.33% in series [2].

Take `CN[C@H]1CC[C@@H](c2ccc(Cl)c(Cl)c2)c2ccccc21.Cl` [SERTRALINE HYDROCHLORIDE]: the residual activity in series [1] is 66.16%; in series [2], 72.13%.

Take `CCCCc1nc(Cl)c(CO)n1Cc1ccc(-c2ccccc2-c2nn[nH]n2)cc1` [LOSARTAN]: the residual activity was found to be 23.21% in series [1] and 3.759% in series [2].

Turning to `CCCCC[C@H](CC(=O)O)C(=O)O` [NONIC ACID], the results for the residual activity in series [1] and in series [2] were 128.4% and 117%, respectively.

As for `COC1=CC(=O)C=C(OC)C1=O` [2,6-DIMETHOXYQUINONE], the values for the residual activity in series [1] and in series [2] were 115.1% and 101.9%, respectively.
